PubChem BioAssay (NCI)
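Results reflect a 48-hour exposure of cells in 96-well plates to compound at five concentrations. TGI denotes the concentration required for complete inhibition of growth.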

Columns and labels:
Assay in all cases: DTP human tumour cell line panel, 48 h
SF-539 CNS = system: SF-539 CNS
SK-MEL-28 melanoma = system: SK-MEL-28 melanoma
LXFL 529 NSCLC = system: LXFL 529 NSCLC
K-562 leukemia = system: K-562 leukemia
NCI-H460 lung = system: NCI-H460 lung
OVCAR-5 ovarian = system: OVCAR-5 ovarian
OVCAR-3 ovarian = system: OVCAR-3 ovarian
M19-MEL melanoma = system: M19-MEL melanoma
EKVX NSCLC = system: EKVX NSCLC
UO-31 renal = system: UO-31 renal
HT29 colon = system: HT29 colon
DMS 273 small cell lung = system: DMS 273 small cell lung
IGROV1 ovarian = system: IGROV1 ovarian
HCC-2998 colon = system: HCC-2998 colon
DLD-1 colon = system: DLD-1 colon
SNB-19 CNS = system: SNB-19 CNS
MOLT-4 leukemia = system: MOLT-4 leukemia
NCI-H23 lung = system: NCI-H23 lung
LOX IMVI melanoma = system: LOX IMVI melanoma
NCI-H522 lung = system: NCI-H522 lung
CCRF-CEM leukemia = system: CCRF-CEM leukemia
HL-60(TB) leukemia = system: HL-60(TB) leukemia
SNB-75 CNS = system: SNB-75 CNS
SF-295 CNS = system: SF-295 CNS
NCI-H226 lung = system: NCI-H226 lung
SN12C renal = system: SN12C renal
UACC-257 melanoma = system: UACC-257 melanoma
RPMI-8226 leukemia = system: RPMI-8226 leukemia
OVCAR-8 ovarian = system: OVCAR-8 ovarian
DMS 114 small cell lung = system: DMS 114 small cell lung
MALME-3M melanoma = system: MALME-3M melanoma
786-0 renal = system: 786-0 renal
HOP-18 NSCLC = system: HOP-18 NSCLC
KM20L2 colon = system: KM20L2 colon
SW-620 colon = system: SW-620 colon
COLO 205 colon = system: COLO 205 colon
XF 498 CNS = system: XF 498 CNS
SK-OV-3 ovarian = system: SK-OV-3 ovarian
HOP-92 NSCLC = system: HOP-92 NSCLC
HCT-116 colon = system: HCT-116 colon
UACC-62 melanoma = system: UACC-62 melanoma
M14 melanoma = system: M14 melanoma
OVCAR-4 ovarian = system: OVCAR-4 ovarian
SK-MEL-2 melanoma = system: SK-MEL-2 melanoma
HCT-15 colon = system: HCT-15 colon
A498 renal = system: A498 renal
U251 CNS = system: U251 CNS
RXF 393 renal = system: RXF 393 renal
SNB-78 CNS = system: SNB-78 CNS
KM12 colon = system: KM12 colon
A549 NSCLC = system: A549 NSCLC
SR leukemia = system: SR leukemia
CAKI-1 renal = system: CAKI-1 renal
TK-10 renal = system: TK-10 renal
SF-268 CNS = system: SF-268 CNS
ACHN renal = system: ACHN renal
HOP-62 NSCLC = system: HOP-62 NSCLC
SK-MEL-5 melanoma = system: SK-MEL-5 melanoma

COc1ccc(NC(=O)C2C(=O)N(c3ccc(OC)cc3)C(=O)/C2=N/O)cc1 (centres undefined)
TGI (SF-539 CNS): 36.7 µM | TGI (SK-MEL-28 melanoma): > 96.8 µM | TGI (LXFL 529 NSCLC): > 75 µM | TGI (K-562 leukemia): > 100 µM | TGI (NCI-H460 lung): 46.4 µM | TGI (OVCAR-5 ovarian): > 100 µM | TGI (OVCAR-3 ovarian): > 59.9 µM | TGI (M19-MEL melanoma): 61.1 µM | TGI (EKVX NSCLC): 97.2 µM | TGI (UO-31 renal): 47 µM | TGI (HT29 colon): > 100 µM | TGI (DMS 273 small cell lung): > 81.1 µM | TGI (IGROV1 ovarian): > 80.7 µM | TGI (HCC-2998 colon): 47.2 µM | TGI (DLD-1 colon): > 100 µM | TGI (SNB-19 CNS): > 70.5 µM | TGI (MOLT-4 leukemia): > 100 µM | TGI (NCI-H23 lung): > 88.1 µM | TGI (LOX IMVI melanoma): > 100 µM | TGI (NCI-H522 lung): 53.4 µM | TGI (CCRF-CEM leukemia): > 100 µM | TGI (HL-60(TB) leukemia): > 100 µM | TGI (SNB-75 CNS): > 73.7 µM | TGI (SF-295 CNS): 52.5 µM | TGI (NCI-H226 lung): 55.7 µM | TGI (SN12C renal): 71.9 µM | TGI (UACC-257 melanoma): > 80.5 µM | TGI (RPMI-8226 leukemia): > 100 µM | TGI (OVCAR-8 ovarian): 32 µM | TGI (DMS 114 small cell lung): > 100 µM | TGI (MALME-3M melanoma): 42.9 µM | TGI (786-0 renal): 41.9 µM | TGI (HOP-18 NSCLC): 44.4 µM | TGI (KM20L2 colon): > 100 µM | TGI (SW-620 colon): > 100 µM | TGI (COLO 205 colon): > 100 µM | TGI (XF 498 CNS): 18.7 µM | TGI (SK-OV-3 ovarian): 39 µM | TGI (HOP-92 NSCLC): 47.8 µM | TGI (HCT-116 colon): 38.3 µM | TGI (UACC-62 melanoma): 45.8 µM | TGI (M14 melanoma): > 86.6 µM | TGI (OVCAR-4 ovarian): 31.6 µM | TGI (SK-MEL-2 melanoma): > 86.8 µM | TGI (HCT-15 colon): > 100 µM | TGI (A498 renal): 59.3 µM | TGI (U251 CNS): 42.9 µM | TGI (RXF 393 renal): 30.5 µM | TGI (SNB-78 CNS): > 100 µM | TGI (KM12 colon): 56.7 µM | TGI (A549 NSCLC): > 78.7 µM | TGI (SR leukemia): > 100 µM | TGI (CAKI-1 renal): > 77.3 µM | TGI (TK-10 renal): 52.3 µM | TGI (SF-268 CNS): 52.7 µM | TGI (ACHN renal): 43.2 µM | TGI (HOP-62 NSCLC): 43.3 µM

CC1CC(c2ccccc2)=Nc2ccccc2S1(=O)=O (centres undefined)
TGI (SF-539 CNS): 34.1 µM | TGI (SK-MEL-28 melanoma): 29.8 µM | TGI (LXFL 529 NSCLC): 28.6 µM | TGI (K-562 leukemia): 41.9 µM | TGI (NCI-H460 lung): 34.9 µM | TGI (OVCAR-5 ovarian): 35.7 µM | TGI (OVCAR-3 ovarian): 32.8 µM | TGI (M19-MEL melanoma): 30.5 µM | TGI (EKVX NSCLC): 39.6 µM | TGI (UO-31 renal): 29 µM | TGI (DMS 273 small cell lung): 38.3 µM | TGI (IGROV1 ovarian): 37.8 µM | TGI (HCC-2998 colon): 19.5 µM | TGI (DLD-1 colon): 28.4 µM | TGI (SNB-19 CNS): 28.4 µM | TGI (MOLT-4 leukemia): 33.3 µM | TGI (NCI-H23 lung): 30.8 µM | TGI (LOX IMVI melanoma): 31 µM | TGI (NCI-H522 lung): 31 µM | TGI (CCRF-CEM leukemia): 43.4 µM | TGI (HL-60(TB) leukemia): 52.8 µM | TGI (SNB-75 CNS): 35.9 µM | TGI (SF-295 CNS): 39.4 µM | TGI (SN12C renal): 34.3 µM | TGI (UACC-257 melanoma): 23.8 µM | TGI (RPMI-8226 leukemia): 5.59 µM | TGI (OVCAR-8 ovarian): 43.9 µM | TGI (DMS 114 small cell lung): 45.8 µM | TGI (MALME-3M melanoma): 37.1 µM | TGI (786-0 renal): 30.9 µM | TGI (HOP-18 NSCLC): 30 µM | TGI (KM20L2 colon): 31.7 µM | TGI (SW-620 colon): 31.6 µM | TGI (COLO 205 colon): 40.9 µM | TGI (XF 498 CNS): 32.7 µM | TGI (SK-OV-3 ovarian): 36.4 µM | TGI (HOP-92 NSCLC): 48.7 µM | TGI (SK-MEL-5 melanoma): 32.5 µM | TGI (HCT-116 colon): 3.13 µM | TGI (UACC-62 melanoma): 55.7 µM | TGI (M14 melanoma): 40.9 µM | TGI (OVCAR-4 ovarian): 38.3 µM | TGI (SK-MEL-2 melanoma): 31.3 µM | TGI (HCT-15 colon): 54.2 µM | TGI (A498 renal): 28.2 µM | TGI (U251 CNS): 31.9 µM | TGI (RXF 393 renal): 28.7 µM | TGI (SNB-78 CNS): 30.8 µM | TGI (KM12 colon): 31.3 µM | TGI (A549 NSCLC): 55.6 µM | TGI (CAKI-1 renal): 48.5 µM | TGI (TK-10 renal): 47.7 µM | TGI (SF-268 CNS): 31.4 µM | TGI (ACHN renal): 30.1 µM | TGI (HOP-62 NSCLC): 39.8 µM

NC(N)=N/N=C(/c1nc2ccc([N+](=O)[O-])cc2[nH]c1=O)C(O)c1ccco1 (centres undefined)
TGI (SF-539 CNS): > 100 µM | TGI (SK-MEL-28 melanoma): > 100 µM | TGI (LXFL 529 NSCLC): > 100 µM | TGI (K-562 leukemia): > 100 µM | TGI (NCI-H460 lung): > 100 µM | TGI (OVCAR-5 ovarian): > 100 µM | TGI (M19-MEL melanoma): > 100 µM | TGI (EKVX NSCLC): > 100 µM | TGI (UO-31 renal): > 100 µM | TGI (HT29 colon): > 100 µM | TGI (DMS 273 small cell lung): > 100 µM | TGI (IGROV1 ovarian): > 100 µM | TGI (HCC-2998 colon): > 100 µM | TGI (DLD-1 colon): > 100 µM | TGI (SNB-19 CNS): > 100 µM | TGI (MOLT-4 leukemia): > 100 µM | TGI (NCI-H23 lung): > 100 µM | TGI (LOX IMVI melanoma): > 100 µM | TGI (NCI-H522 lung): > 100 µM | TGI (CCRF-CEM leukemia): > 100 µM | TGI (HL-60(TB) leukemia): > 100 µM | TGI (SNB-75 CNS): > 100 µM | TGI (SF-295 CNS): > 100 µM | TGI (NCI-H226 lung): > 100 µM | TGI (SN12C renal): > 100 µM | TGI (UACC-257 melanoma): > 100 µM | TGI (RPMI-8226 leukemia): > 100 µM | TGI (OVCAR-8 ovarian): > 100 µM | TGI (DMS 114 small cell lung): > 100 µM | TGI (MALME-3M melanoma): > 100 µM | TGI (786-0 renal): > 100 µM | TGI (HOP-18 NSCLC): > 100 µM | TGI (KM20L2 colon): > 100 µM | TGI (SW-620 colon): > 100 µM | TGI (COLO 205 colon): > 100 µM | TGI (XF 498 CNS): > 100 µM | TGI (SK-OV-3 ovarian): > 100 µM | TGI (HOP-92 NSCLC): > 100 µM | TGI (SK-MEL-5 melanoma): > 100 µM | TGI (HCT-116 colon): > 100 µM | TGI (UACC-62 melanoma): > 100 µM | TGI (M14 melanoma): > 100 µM | TGI (OVCAR-4 ovarian): > 100 µM | TGI (SK-MEL-2 melanoma): > 100 µM | TGI (HCT-15 colon): > 100 µM | TGI (A498 renal): > 100 µM | TGI (U251 CNS): > 100 µM | TGI (RXF 393 renal): > 100 µM | TGI (SNB-78 CNS): > 100 µM | TGI (KM12 colon): > 100 µM | TGI (A549 NSCLC): > 100 µM | TGI (SR leukemia): > 100 µM | TGI (CAKI-1 renal): > 100 µM | TGI (TK-10 renal): > 100 µM | TGI (SF-268 CNS): > 100 µM | TGI (ACHN renal): > 100 µM | TGI (HOP-62 NSCLC): > 100 µM
